pIC50: −log10 of the molar value.

The target of the first assay is T1, Phospholipase A2, membrane associated (Homo sapiens, UniProt P14555).
T1 sequence (P14555 whole entry): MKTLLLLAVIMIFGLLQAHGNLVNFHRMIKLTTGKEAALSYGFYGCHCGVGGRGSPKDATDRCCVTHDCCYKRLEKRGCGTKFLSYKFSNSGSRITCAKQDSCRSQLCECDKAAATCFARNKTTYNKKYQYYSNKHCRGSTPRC
In words: Inhibition of human non-pancreatic sPLA2 using 1,2-dimyristoyl-sn-glycero-3-phosphocholine substrate after 5 mins by continuous fluorescence assay.
Settings: not given; call rule not given here
As for `COC(=O)c1c2c(nc3ccc(F)cc13)CCCC2`, the IC50 result was “Not Active”.

As for `COC(=O)c1c2c(nc3ccc(Cl)cc13)CCCC2`, the IC50 entry is listed as “Not Active”.

As to `COC(=O)c1c2c(nc3ccccc13)CCCC2`, the IC50 result is recorded as “Not Active”.

Regarding `CCCCCOc1ccc(-c2cc(C(=O)OC)c3cc(OC)ccc3n2)cc1`, the IC50 entry is “Not Active”.

On to `CCCCCCOc1ccc(-c2cc(C(=O)OC)c3cc(OC)ccc3n2)cc1`, for which the IC50 result was “Not Active”.

The assay is the same for the next values; noted with them: read-out: IC50.
Regarding `COC(=O)c1cc(-c2ccccc2)nc2ccc(OC)cc12`, the negative logarithm of the IC50 (pIC50) is 5.70.

As to `COC(=O)c1c(-c2ccccc2)c(C)nc2ccc(Cl)cc12`, the pIC50 is 5.54.

For `CCCCOc1ccc(-c2cc(C(=O)OC)c3cc(OC)ccc3n2)cc1`, the negative-log IC50 (pIC50) is 4.24.

In the case of `COC(=O)c1cc(CCc2ccccc2)nc2ccc(F)cc12`, the negative logarithm of the IC50 (pIC50) was 4.92.

Consider `COc1ccc2c(c1)c(CC(N)=O)c(C)n2Cc1ccccc1`, for which the pIC50 is 6.00.

For the compound `COC(=O)c1cc(-c2ccc(OC)cc2)nc2ccc(F)cc12`, the pIC50 is 5.22.

For `COC(=O)c1cc(Cc2ccccc2OC)nc2ccc(F)cc12`, the pIC50 is 5.64.

As for `COC(=O)c1c(Cc2ccccc2)c(C)nc2ccc(F)cc12`, the negative-log IC50 (pIC50) is 4.80.

Turning to `COC(=O)c1cc(CCc2ccccc2)nc2ccc(OC)cc12`, the pIC50 is 5.82.

As to `CCCOc1ccc(-c2cc(C(=O)OC)c3cc(OC)ccc3n2)cc1`, the negative-log IC50 (pIC50) is 4.57.

With `COC(=O)c1c(Cc2ccccc2)c(C)nc2ccc(Cl)cc12`, the negative-log IC50 (pIC50) is 5.55.

For `COC(=O)c1cc(-c2ccc(OC)cc2)nc2ccc(Cl)cc12`, the negative-log IC50 (pIC50) is 5.09.

As for `COC(=O)c1cc(-c2ccc(OC)cc2)nc2ccc(OC)cc12`, the pIC50 is 4.82.

As for `COC(=O)c1c(Cc2ccccc2)c(C)nc2ccc(OC)cc12`, the pIC50 is 4.47.

In the case of `CCCCOc1ccc(-c2cc(C(=O)OC)c3ccccc3n2)cc1`, the pIC50 is 4.36.

On to `COC(=O)c1cc(CCc2ccccc2)nc2ccc(Cl)cc12`, for which the pIC50 was 5.74.

What is called pIC50 is −log10 of the IC50, conventionally taken in molar units.
